Measured values as given in article PMC7687371, “Quantitative in Vitro to in Vivo Extrapolation (QIVIVE) for Predicting Reduced Anogenital Distance Produced by Anti-Androgenic Pesticides in a Rodent Model for Male Reproductive Disorders” (Environmental Health Perspectives, 2020).
Marks after values point to notes of the source that are not given here.

Columns and labels:
androgen receptor (AR) = molecular target: androgen receptor (AR); design: method as in Vinggaard et al. (2008); settings: ref Vinggaard et al. (2008); read-out: AR antagonism (IC50); cited from earlier work
[1] = PBK model first-order kinetic parameters fitted to in vivo ADME data; design: species or system rat; settings: PBK model parameter
[2] = design: method as in U.S. EPA 2012; settings: EPI Suite, experimental preferred over modeled; ref U.S. EPA 2012; cited from earlier work
[3] = design: method as in Sierra-Santoyo et al. (2008); settings: conversion of parent compound into active metabolite; ref Sierra-Santoyo et al. (2008); cited from earlier work
[4] = Fetal chemical exposure analysis (LC-QTOF) at GD21; assay type: in vivo, rat; settings: male, Sprague-Dawley, rat, in vivo, 40 mg/kg/day
Outline: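 Rat dams killed at GD21; pooled fetal trunk plasma (by sex, per litter, ~90 min post-dose) and amniotic fluid stored at −80 °C. Samples extracted with acetonitrile (C-18 cleanup) and analysed by positive-ESI LC-QTOF; quantified from (M+H)+ extracted-ion chromatograms ±0.005 Da against matrix-matched plasma standards.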

[5] = ref Wetmore et al. (2012); cited from earlier work
NCI-H295R cells = assay: H295R steroidogenesis assay; assay type: cell-based, human
Outline: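 Human adrenocortical NCI-H295R cells exposed 48 h to compounds in 2-fold dilutions from 0.8 to 50 μM (0.1% DMSO), three independent experiments. Ten steroid hormones in medium measured by LC-MS/MS and normalized to solvent controls; viability checked by MTT.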

pregnant dams and pups = settings: ref EFSA's Draft Assessment Reports (DARs); cited from earlier work
[6] = design: method as in EFSA 2009; settings: 24 h after dosing; ref EFSA 2009; cited from earlier work

C=CC(C)(O)C(=O)Nc1cc(Cl)cc(Cl)c1 (centres unmarked) [M2, 3′,5′-dichloro-2-hydroxy-2-methylbut-3-enanilide]
IC50 (androgen receptor (AR)): 200 nM | Urine excretion rate from kidney (L/h) KUrine [1]: 0.2 L/h | log Kow [2]: 2.95 | Metabolism rate in liver, Metabolite (L/h) [3]: 0.9^h L/h | Measured concentration in male fetuses [4]: 3.4 µM

C=CCOC(Cn1ccnc1)c1ccc(Cl)cc1Cl (centres unmarked) [Imazalil, imazalil]
Fecal excretion rate from gut (L/h) KFeces [1]: 0.5 L/h | Portal GI absorption rate into liver (L/h) KAS [1]: 1 L/h | Urine excretion rate from kidney (L/h) KUrine [1]: 0.53 L/h | Unbound plasma fraction (%) [5]: 4.8^g % | log Kow [2]: 3.82 | Effect on androgen (steroid) synthesis, in words (NCI-H295R cells; H295R steroidogenesis assay): inhibited testosterone synthesis | IC20 (NCI-H295R cells; Homo sapiens, NCI-H295R, read-out: Testosterone inhibition (IC20 µM)): 500 nM | Androstendione, LOEC (NCI-H295R cells; multiple contrast tests): 0.8 µM | Corticosterone, LOEC (NCI-H295R cells; multiple contrast tests): 0.8 µM | Cortisol, LOEC (NCI-H295R cells; multiple contrast tests): 0.8 µM | DHEA, LOEC (NCI-H295R cells; multiple contrast tests): 0.8 µM | Estradiol, LOEC (NCI-H295R cells; multiple contrast tests): 0.8 µM | OH-Progesterone, LOEC (NCI-H295R cells; multiple contrast tests): 0.8 µM | Progesterone, LOEC (NCI-H295R cells; multiple contrast tests): 0.8 µM | Testosterone, lowest observed effect concentration (LOEC) (NCI-H295R cells; multiple contrast tests): 0.8 µM | Critical toxicity (pregnant dams and pups): Increased duration of gestation , effects on pups/fetuses related to maternal toxicity | LOAEL (mg/kg bw) (pregnant dams and pups): 80 mg/kg bw | NOAEL (mg/kg bw) (pregnant dams and pups): 20 mg/kg bw | Number of metabolites discovered in urine and feces [6]: at least 25

C=CC(C)(OC(=O)Nc1cc(Cl)cc(Cl)c1)C(=O)O (centres unmarked) [M1, 2-[[(3,5-dichlorophenyl)-carbamoyl]oxy]-2-methyl-3-butenoic acid]
IC50 (androgen receptor (AR)): 2000 nM | Urine excretion rate from kidney (L/h) KUrine [1]: 0.2 L/h | log Kow [2]: 3.52 | Metabolism rate in liver, Metabolite (L/h) [3]: 2.8^h L/h | Measured concentration in male fetuses [4]: 18.0 µM
